This experiment deals with galectin-3 (Homo sapiens (Human), UniProt P17931). The experiment is described as follows: Fluorescence anisotropy assay, inhibition of galectin / fluorescein tagged saccharide probe interaction. The experiment is classed as binding. The procedure: Evaluation of Kd Values The affinity of Example 1-71 for galectins were determined by a fluorescence anisotropy assay where the compound was used as an inhibitor of the interaction between galectin and a fluorescein tagged saccharide probe as described Sörme, P., Kahl-Knutsson, B., Huflejt, M., Nilsson, U. J., and Leffler H. (2004) Fluorescence polarization as an analytical tool to evaluate galectin-ligand interactions. Anal. Biochem. 334: 36-47, (Sörme et al., 2004) and Monovalent interactions of Galectin-1 By Salomonsson, Emma; Larumbe, Amaia; Tejler, Johan; Tullberg, Erik; Rydberg, Hanna; Sundin, Anders; Khabut, Areej; Frejd, Torbjorn; Lobsanov, Yuri D.; Rini, James M.; et al, From Biochemistry (2010), 49(44), 9518-9532, (Salomonsson et al., 2010). […] 100 nM albumin was included as a carrier to prevent protein loss at such low concentration of galectin.
galectin-3, sequence (P17931 whole entry): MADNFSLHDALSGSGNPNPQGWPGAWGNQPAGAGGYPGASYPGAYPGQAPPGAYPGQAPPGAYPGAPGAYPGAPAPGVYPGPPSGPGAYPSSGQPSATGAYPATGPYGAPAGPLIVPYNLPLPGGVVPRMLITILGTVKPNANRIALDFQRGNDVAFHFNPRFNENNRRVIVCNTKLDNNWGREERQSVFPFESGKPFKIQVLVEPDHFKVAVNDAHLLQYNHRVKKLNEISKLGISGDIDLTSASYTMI
For orientation: Fluorescence polarisation rises when a labelled molecule tumbles more slowly, as on binding a larger partner.
One may read the Kd as the constant that tells how readily two partners part at equilibrium. Read a high Kd as a looser complex. The compound `CO[C@@H]1[C@@H](n2cc(-c3cc(F)c(Cl)c(F)c3)nn2)[C@@H](O)[C@@H](CO)O[C@@H]1Sc1ccc(Cl)c(Cl)c1` [Example 71, 3,4-Dichlorophenyl 3-[4-(4-chloro-3,5-difluorophenyl)-1H-1,2,3-triazol-1-yl]-3-deoxy-2-O-methyl-1-thio-α-D-galactopyranoside] showed a Kd of 250 nM. That is a sub-micromolar value. For `CNCCO[C@@H]1[C@@H](n2cc(-c3cc(F)c(F)c(F)c3)nn2)[C@@H](O)[C@@H](CO)O[C@@H]1Sc1cncc(Br)c1` [Example 20, 5-Bromopyridin-3-yl 3-deoxy-3-[4-(3,4,5-trifluorophenyl)-1H-1,2,3-triazol-1-yl]-2-O-[2-(methylamino)ethyl]-1-thio-α-D-galactopyranoside] the value was 71 nM. As for `CCO[C@@H]1[C@@H](n2cc(-c3cc(F)c(F)c(F)c3)nn2)[C@@H](O)[C@@H](CO)O[C@@H]1Sc1cc(Cl)cnc1C#N` [Example 16, 5-Chloro-2-cyanopyridin-3-yl 3-deoxy-2-O-ethyl-3-[4-(3,4,5-trifluorophenyl)-1H-1,2,3-triazol-1-yl]-1-thio-α-D-galactopyranoside], binding was put at a Kd of 59 nM. This Kd and that of the compound before are within 1.5-fold of each other.

The compound `CO[C@@H]1[C@@H](n2cc(-c3cc(F)c(F)c(F)c3)nn2)[C@@H](O)[C@@H](CO)O[C@@H]1Sc1cc(Cl)cnc1-c1ccccn1` [Example 25, 5-Chloro-2-(pyridin-2-yl)pyridin-3-yl 3-deoxy-3-[4-(3,4,5-trifluorophenyl)-1H-1,2,3-triazol-1-yl]-2-O-methyl-1-thio-α-D-galactopyranoside] gave a Kd of 24 nM. Compared with the last compound, the Kd is about 2.5-fold lower. Next, `CO[C@@H]1[C@@H](n2cc(-c3cc(F)c(Cl)c(F)c3)nn2)[C@@H](O)[C@@H](CO)O[C@@H]1Sc1cc(Cl)ccc1C(=O)N1CCC1` [Example 40, 2-(N-azetidinyl-carbonyl)-5-chlorophenyl 3-[4-(4-chloro-3,5-difluorophenyl)-1H-1,2,3-triazol-1-yl]-3-deoxy-2-O-methyl-1-thio-α-D-galactopyranoside]: 15 nM; `CO[C@@H]1[C@@H](n2cc(-c3cc(F)c(F)c(F)c3)nn2)[C@@H](O)[C@@H](CO)O[C@@H]1Sc1cc(Cl)cnc1-c1ccncc1` [Example 27, 5-Chloro-2-(pyridin-4-yl)pyridin-3-yl 3-deoxy-3-[4-(3,4,5-trifluorophenyl)-1H-1,2,3-triazol-1-yl]-2-O-methyl-1-thio-α-D-galactopyranoside]: 56 nM; `COC1[C@@H](Sc2cc(Cl)cnc2N2CC3(COC3)C2)OC(CO)[C@H](O)[C@@H]1n1cc(-c2cc(F)c(Cl)c(F)c2)nn1` (stereo partly drawn) [Example 11, 5-Chloro-2-{N-(2-oxa)-6-azaspiro[3.3]heptanyl}-pyridin-3-yl 3-[4-(4-chloro-3,5-difluorophenyl)-1H-1,2,3-triazol-1-yl]-3-deoxy-2-O-methyl-1-thio-α-D-galactopyranoside]: 49 nM. In the case of `COC1[C@@H](Sc2cc(Cl)c(C#N)nc2N2CC3(COC3)C2)OC(CO)[C@H](O)[C@@H]1n1cc(-c2cc(F)c(Cl)c(F)c2)nn1` (stereo partly drawn) [Example 22, 5-Chloro-6-cyano-2-{N-(2-oxa)-6-azaspiro[3.3]heptanyl}-pyridin-3-yl 3-[4-(4-chloro-3,5-difluorophenyl)-1H-1,2,3-triazol-1-yl]-3-deoxy-2-O-methyl-1-thio-α-D-galactopyranoside], binding was put at a Kd of 60 nM. This Kd and that of the compound before are within 1.5-fold of each other. Take `OC[C@H]1O[C@H](Sc2cncc(Br)c2)[C@H](OCCF)[C@@H](n2cc(-c3cc(F)c(F)c(F)c3)nn2)[C@H]1O` [Example 19, 5-Bromopyridin-3-yl 3-deoxy-3-[4-(3,4,5-trifluorophenyl)-1H-1,2,3-triazol-1-yl]-2-O-(2-fluoroethyl)-1-thio-α-D-galactopyranoside]: the Kd came out at 20 nM. For `CO[C@@H]1[C@@H](n2cc(-c3cc(F)c(F)c(F)c3)nn2)[C@@H](O)[C@@H](CO)O[C@@H]1Sc1cc(-c2nccs2)cnc1-c1nccs1` [Example 32, 2,5-Bis(thiazol-2-yl)pyridin-3-yl 3-deoxy-3-[4-(3,4,5-trifluorophenyl)-1H-1,2,3-triazol-1-yl]-2-O-methyl-1-thio-α-D-galactopyranoside] the value was 210 nM; for `C#Cc1cnc(C#N)c(S[C@H]2O[C@H](CO)[C@H](O)[C@H](n3cc(-c4cc(F)c(C)c(F)c4)nn3)[C@H]2OC)c1` [Example 57, 2-Cyano-5-ethynylpyridin-3-yl 3-deoxy-3-[4-(3,5-difluoro-4-methylphenyl)-1H-1,2,3-triazol-1-yl]-2-O-methyl-1-thio-α-D-galactopyranoside], 35 nM; for `CO[C@@H]1[C@@H](n2cc(-c3ccc(Cl)c(C)n3)nn2)[C@@H](O)[C@@H](CO)O[C@@H]1Sc1cncc(Cl)c1` [Example 44, 5-Chloropyridin-3-yl 3-[4-(5-chloro-6-methylpyridin-2-yl)-1H-1,2,3-triazol-1-yl]-3-deoxy-2-O-methyl-1-thio-α-D-galactopyranoside], 880 nM. For `CO[C@@H]1[C@@H](n2cc(-c3ccc(Cl)c(F)c3)nn2)[C@@H](O)[C@@H](CO)O[C@@H]1Sc1cncc(Cl)c1` [Example 37, 5-Chloropyridin-3-yl 3-[4-(4-chloro-3-fluorophenyl)-1H-1,2,3-triazol-1-yl]-3-deoxy-2-O-methyl-1-thio-α-D-galactopyranoside] the value was 42 nM. For `CO[C@@H]1[C@@H](n2cc(-c3cc(F)c(F)c(F)c3)nn2)[C@@H](O)[C@@H](CO)O[C@@H]1Sc1cc(Cl)cnc1-c1nccs1` [Example 31, 5-Chloro-2-(thiazol-2-yl)pyridin-3-yl 3-deoxy-3-[4-(3,4,5-trifluorophenyl)-1H-1,2,3-triazol-1-yl]-2-O-methyl-1-thio-α-D-galactopyranoside] the value was 300 nM. Turning to `CCO[C@@H]1[C@@H](n2cc(-c3cc(F)c(F)c(F)c3)nn2)[C@@H](O)[C@@H](CO)O[C@@H]1Sc1cncc(Br)c1` [Example 17, 5-Bromopyridin-3-yl 3-deoxy-3-[4-(3,4,5-trifluorophenyl)-1H-1,2,3-triazol-1-yl]-2-O-ethyl-1-thio-α-D-galactopyranoside], binding was put at a Kd of 74 nM. Next, `CO[C@@H]1[C@@H](n2cc(-c3cc(F)c(F)c(F)c3)nn2)[C@@H](O)[C@@H](CO)O[C@@H]1Sc1cnc(C#N)c(Cl)c1` [Example 45, 3-Chloro-2-cyanopyridin-5-yl 3-deoxy-3-[4-(3,4,5-trifluorophenyl)-1H-1,2,3-triazol-1-yl]-2-O-methyl-1-thio-α-D-galactopyranoside]: 65 nM; `COC1[C@@H](Sc2cc(Cl)ccc2C(=O)N(C)C)OC(CO)[C@H](O)[C@@H]1n1cc(-c2cc(F)c(Cl)c(F)c2)nn1` (stereo partly drawn) [Example 4, 4-Chloro-N,N-dimethyl-benzamide-2-yl 3-[4-(4-chloro-3,5-difluorophenyl)-1H-1,2,3-triazol-1-yl]-3-deoxy-2-O-methyl-1-thio-α-D-galactopyranoside]: 14 nM; `CO[C@@H]1[C@@H](n2cc(-c3cc(F)c(Cl)c(F)c3)nn2)[C@@H](O)[C@@H](CO)O[C@@H]1Sc1cc(Cl)ccc1C(=O)N1CCCCC1` [Example 6, 2-(N-piperidinyl-carbonyl)-5-chlorophenyl 3-[4-(4-chloro-3,5-difluorophenyl)-1H-1,2,3-triazol-1-yl]-3-deoxy-2-O-methyl-1-thio-α-D-galactopyranoside]: 120 nM. The compound `CO[C@@H]1[C@@H](n2cc(-c3cc(F)c(Cl)c(F)c3)nn2)[C@@H](O)[C@@H](CO)O[C@@H]1Sc1cncc(Cl)c1` [Example 33, 5-Chloropyridin-3-yl 3-[4-(4-chloro-3,5-difluorophenyl)-1H-1,2,3-triazol-1-yl]-3-deoxy-2-O-methyl-1-thio-α-D-galactopyranoside] gave a Kd of 31 nM. Next, `CO[C@@H]1[C@@H](n2cc(-c3cc(F)c(F)c(F)c3)nn2)[C@@H](O)[C@@H](CO)O[C@@H]1Sc1cc(Cl)cnc1-c1cncnc1` [Example 24, 5-Chloro-2-(pyrimidin-5-yl)pyridin-3-yl 3-deoxy-3-[4-(3,4,5-trifluorophenyl)-1H-1,2,3-triazol-1-yl]-2-O-methyl-1-thio-α-D-galactopyranoside]: 28 nM; `CO[C@@H]1[C@@H](n2cc(-c3cc(F)c(F)c(F)c3)nn2)[C@@H](O)[C@@H](CO)O[C@@H]1Sc1cc(Cl)ccc1C(=O)N1CCC1` [Example 70, 2-(N-azetidinyl-carbonyl)-5-chlorophenyl 3-deoxy-3-[4-(3,4,5-trifluorophenyl)-1H-1,2,3-triazol-1-yl]-2-O-methyl-1-thio-α-D-galactopyranoside]: 12 nM; `CO[C@@H]1[C@@H](n2cc(-c3cc(F)c(Cl)c(F)c3)nn2)[C@@H](O)[C@@H](CO)O[C@@H]1Sc1cc(Br)cnc1C#N` [Example 50, 5-Bromo-2-cyanopyridin-3-yl 3-[4-(4-chloro-3,5-difluorophenyl)-1H-1,2,3-triazol-1-yl]-3-deoxy-2-O-methyl-1-thio-α-D-galactopyranoside]: 23 nM.

For `COC1[C@@H](Sc2cc(Cl)c(C#N)nc2N2CC3(COC3)C2)OC(CO)[C@H](O)[C@@H]1n1cc(-c2cc(F)c(F)c(F)c2)nn1` (stereo partly drawn) [Example 23, 5-Chloro-6-cyano-2-{N-(2-oxa)-6-azaspiro[3.3]heptanyl}-pyridin-3-yl 3-deoxy-3-[4-(3,4,5-trifluorophenyl)-1H-1,2,3-triazol-1-yl]-2-O-methyl-1-thio-α-D-galactopyranoside], the Kd came out at 37 nM. Compound `COC1[C@@H](Sc2cc(Cl)cnc2N2CC3(COC3)C2)OC(CO)[C@H](O)[C@@H]1n1cc(-c2cc(F)c(F)c(F)c2)nn1` (stereo partly drawn) [Example 10, 5-Chloro-2-{N-(2-oxa)-6-azaspiro[3.3]heptanyl}-pyridin-3-yl 3-deoxy-3-[4-(3,4,5-trifluorophenyl)-1H-1,2,3-triazol-1-yl]-2-O-methyl-1-thio-α-D-galactopyranoside] registered a Kd of 33 nM.
